Measured values taken from patent US10336757B2, “Treatment of neurodegenerative diseases through inhibition of HSP90” (Sloan-Kettering Institute for Cancer Research, priority 2006, dated 2019).
Values joined by “and” are separate entries in the source; they are usually repeats but may differ in a detail not shown here. Equal values may be shown once.

Columns and labels:
[1] = tested on: p35 and Tau phosphorylation on Ser202; experiment: One dose PU-DZ8 in hTau mice, cortical S1 fractions; assay type: in vivo, mouse; conditions: 75 mg/kg i.p.
Description: The majority of Tau pathology in hTau mice is located in the cortical brain region. These mice express six isoforms of non-mutant human Tau, but develop AD-like Tau-pathology. Heat-stable fractions (S1) prepared from cortical homogenates of these mice indicate an age-related accumulation of Tau phosphorylated at putative cdk5 sites. […] Aggregate-free Tau (S1) fractions were prepared from the cortical region of these mice and human Tau levels assessed by immunobloting with an antibody specific for 3-repeat domain Tau (RD3). By analogy to experiments on primary neuronal cultures and WT Tau transfected cells, the Hsp90 inhibitor had no effect on soluble WT Tau expression. […] The monoclonal antibody CP13 is commonly used to detect Tau pathology in both early and more advanced stages of Tau aggregate accumulation (41).

[2] = Experimentally determined logP by RP-HPLC; assay type: physicochemical; conditions: using RP-HPLC
Source text: Compounds of this type may also be provided with a degradable or cleavable linker, such that monomeric agents are provided in vivo. In this embodiment, the dimeric form need not retain activity or the ability to cross the blood brain barrier, and the nature of the linker therefore is not relevant to activity, only to the ability to form active monomeric species. In general, moderately lipophilic drugs such as PUs cross the BBB by passive diffusion. A good structural understanding for the BBB permeability is still lacking, but several parameters are believed to facilitate such behavior. Lipophilicity was the first of the descriptors to be identified as important for CNS penetration. […] The mean value for ClogP for the marketed CNS drugs is 2.5. […] The rules for molecular weight in CNS drugs have been reviewed, where small molecules may undergo significant passive lipid-mediated transport through the blood brain barrier, when the molecular mass is kept in or below a 400- to 600-Da range (90). PU-DZ8 has a MW of 512. All the QSAR equations emphasize the importance of hydrogen bonding —CNS penetration requires 5 or less hydrogen bond acceptors (91). PU-DZ8 has 4. […] PSA has been used as a predictor for BBB penetration by many investigators (92). In general, drugs aimed at the CNS tend to have lower polar surface areas than other classes (93,94). […]

[3] = Assessment of PU-DZ8 brain levels by HPLC/MS/MS; assay type: in vivo, mouse; conditions: 75 mg/kg i.p.
Description: Assessment of PU-DZ8 brain levels. Concentrations of compound were determined and quantitated by a MRM mode using a tandem high-performance liquid chromatography-mass/mass spectrometry (HPLC/MS/MS). A weighed piece of brain was rinsed with saline isotonic solution, dried with gauze and then homogenized in mobile phase (acetonitrile (ACN)/0.1% formic acid=1.2/2.8, v/v). Haloperidol was added as internal standard. PU-DZ8 was extracted in methylene chloride, the organic layer was separated, speedily dried under vacuum and reconstituted in the mobile phase. Compound analysis was performed in the API 4000™ LC/MS/MS (Applied Biosystems) which was coupled with a Shimadzu LC system and a 96-well plate autosampler. A Gemini C18 column (5μ particle size, 50×4.6 mm I.D.) was used for the LC separation. The analyte was eluted under an isocratic condition for 4 min at a flow rate of 0.4 mL/min
One dose of PU-DZ8 (75 mg/kg) was administered intraperitoneally (i.p.) to female mice of 2.5-4 months in age (n=32) and animals were sacrificed in the interval of 0 to 36 h. Both aggregate-free Tau (S1) and insoluble Tau (P3) fractions were prepared from the subcortical and cortical regions of these mice. PU-DZ8 levels in the brain reached 0.35 μg/g (˜700 nM) at 4 h, and the pharmacologically relevant dose was retained for at least 12 h post-administration (0.2 μg/g, ˜390 nM).

P-glycoprotein = P-glycoprotein (Homo sapiens (Human), UniProt P08183); experiment: P-glycoprotein substrate status; assay type: in vitro ADME; conditions: purine scaffold therapeutic
[4] = tested on: mTau expression and phosphorylation, p35; experiment: 30 day Hsp90 inhibitor treatment of JNPL3 mice; assay type: in vivo; conditions: 30 days
Description: JNPL3 female mice 6.5 months of age were treated for 30 days, 5 day/week, with the Hsp90 inhibitor PU-DZ8 (FIG. 5) or vehicle, or sacrificed for time zero, n=4/group. Brains were divided in subcortical and cortical regions and processed using the Greenberg and Davies extraction protocol. (77) Sarkosyl soluble fractions (S1) were analyzed by WB for p35 and Hsp70, and for tau epitopes found abnormally hyperphosphorylated in AD brains such as: 5202 and T205 recognized by ATB, T181 by AT270, T231 by AT180. These are putative cdk5/p35 sites. Protein bands were normalized to Hsp90 and plotted as relative units. […].
To investigate whether modulation of mTau could be sustained over a longer Hsp90 inhibitor-treatment period, without being toxic to mice, JNPL3 mice were subjected for 30 days to these agents. Female JNPL3 mice 6.5 months of age (n=10) were administered i.p. vehicle (n=5) or one of the Hsp90 inhibitors, PU24FC1 (200 mg/kg) or PU-DZ8 (75 mg/kg) (n=5), on a daily, five-times per week schedule and animals were sacrificed at 8 h following the last administered dose of inhibitor. […] Furthermore, no visible internal organ damage was detected at sacrifice upon gross inspection. Both S1 and P3 fractions extracted from the subcortical brain region of these mice were analyzed for mTau expression and phosphorylation.

Chain of P-glycoprotein (P08183 whole entry): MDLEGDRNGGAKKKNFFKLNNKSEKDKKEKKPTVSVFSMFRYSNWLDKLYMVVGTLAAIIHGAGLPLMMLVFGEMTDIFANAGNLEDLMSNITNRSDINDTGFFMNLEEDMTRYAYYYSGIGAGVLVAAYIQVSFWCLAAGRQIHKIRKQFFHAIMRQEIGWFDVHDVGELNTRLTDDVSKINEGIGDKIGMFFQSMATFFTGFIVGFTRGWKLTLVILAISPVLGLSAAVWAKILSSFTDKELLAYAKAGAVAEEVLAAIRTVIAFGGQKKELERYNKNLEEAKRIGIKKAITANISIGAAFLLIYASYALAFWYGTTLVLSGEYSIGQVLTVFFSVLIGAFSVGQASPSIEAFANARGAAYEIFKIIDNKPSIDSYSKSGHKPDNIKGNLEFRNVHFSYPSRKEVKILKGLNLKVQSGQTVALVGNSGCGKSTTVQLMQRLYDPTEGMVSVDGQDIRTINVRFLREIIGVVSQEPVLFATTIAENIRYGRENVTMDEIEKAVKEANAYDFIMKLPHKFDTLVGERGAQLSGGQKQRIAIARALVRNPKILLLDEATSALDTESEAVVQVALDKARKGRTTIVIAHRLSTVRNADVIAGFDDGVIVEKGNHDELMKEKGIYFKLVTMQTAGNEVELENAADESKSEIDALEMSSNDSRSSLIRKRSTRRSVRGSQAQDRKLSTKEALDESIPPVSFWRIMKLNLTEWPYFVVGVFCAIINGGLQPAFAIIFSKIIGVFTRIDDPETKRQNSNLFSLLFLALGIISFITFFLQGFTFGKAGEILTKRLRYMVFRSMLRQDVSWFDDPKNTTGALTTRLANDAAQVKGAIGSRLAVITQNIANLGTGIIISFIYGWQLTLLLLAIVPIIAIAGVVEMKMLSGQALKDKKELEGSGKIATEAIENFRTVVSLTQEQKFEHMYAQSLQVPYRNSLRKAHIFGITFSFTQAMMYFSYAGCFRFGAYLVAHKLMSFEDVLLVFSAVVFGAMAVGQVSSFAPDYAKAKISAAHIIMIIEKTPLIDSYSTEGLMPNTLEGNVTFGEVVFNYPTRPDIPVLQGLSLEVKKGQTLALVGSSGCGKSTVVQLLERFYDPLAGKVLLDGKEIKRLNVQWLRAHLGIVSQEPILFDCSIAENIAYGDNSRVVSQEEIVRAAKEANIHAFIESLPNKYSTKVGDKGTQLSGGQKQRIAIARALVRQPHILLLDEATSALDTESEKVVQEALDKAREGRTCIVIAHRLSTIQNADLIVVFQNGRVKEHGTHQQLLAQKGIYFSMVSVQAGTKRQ

Compound: CC(C)NCCCn1c(Cc2cc3c(cc2I)OCO3)nc2c(N)nc(F)nc21 [PU-DZ8]
- Tau phosphorylation on Ser202 (antibody CP13) ([1]; 8 h post-administration): alleviation of Tau phosphorylation
- p35 levels ([1]; 8 h post-administration): significant time-dependent reduction
- soluble WT Tau expression ([1]; cortical S1): no effect
- experimentally determined logP [2]: 1.53
- levels in the brain ([3]; 12 h post-administration): 0.2 μg/g and ~390 nM
- levels in the brain ([3]; at 4 h): 0.35 μg/g and ~700 nM
- P-gp substrate (P-glycoprotein): not a substrate of P-pg
- toxicity (animal weight, fur appearance, appetite, posture) ([4]; five-times per week i.p., PU24FC1 200 mg/kg or PU-DZ8 75 mg/kg): No toxicity was observed
- Tau expression and phosphorylation in S1 and P3 fractions ([4]; subcortical brain region): significant reduction in Tau expression and phosphorylation
- p35 in S1 fraction ([4]; subcortical brain region): p35 reduction
